Measured values published in ChEMBL document CHEMBL3826926, “Kinetic and structural insights into the binding of histone deacetylase 1 and 2 (HDAC1, 2) inhibitors” (Bioorg Med Chem, 2016).
pIC50: −log10 of the molar value.

Tests used:
[1] = Stability in mouse plasma assessed as compound remaining at 5 uM after 5 hrs by UPLC-MS analysis; type: ADME, cell-free; settings: read-out: Stability
[2] = Stability in mouse liver microsomes assessed as compound remaining at 1 uM after 60 mins by UPLC-MS analysis; type: ADME; settings: read-out: Stability
Histone deacetylase 1 [3] = molecular target: T1, Histone deacetylase 1 (Homo sapiens, UniProt Q13547); settings: Sf9
Description: Inhibition of C-terminal His-tagged and C-terminal FLAG-tagged full length human recombinant HDAC1 expressed in baculovirus coexpressed in fall armyworm Sf9 cells using carboxyfluorescein (FAM)-labeled acetylated/ trifluoroacetylated peptide as substrate assessed as residence time by fluorescence assay

Histone deacetylase 2 [4] = molecular target: T2, Histone deacetylase 2 (Homo sapiens, UniProt Q92769); settings: Sf9
Description: Inhibition of full length human recombinant HDAC2 expressed in baculovirus coexpressed in fall armyworm Sf9 cells using carboxyfluorescein (FAM)-labeled acetylated/ trifluoroacetylated peptide as substrate assessed as residence time by fluorescence assay

Histone deacetylase 3 [5] = molecular target: T3, Histone deacetylase 3 (Homo sapiens, UniProt O15379)
Description: Inhibition of full length human recombinant HDAC3 expressed in baculovirus using carboxyfluorescein (FAM)-labeled acetylated/ trifluoroacetylated peptide as substrate assessed as residence time by fluorescence assay

Histone deacetylase 2 [6] = molecular target: T2, Histone deacetylase 2; test: biochemical; parameters: species or system Sf9
Description: Inhibition full length human recombinant HDAC2 expressed in baculovirus coexpressed in fall armyworm Sf9 cells using carboxyfluorescein (FAM)-labeled acetylated/ trifluoroacetylated peptide as substrate after 60 mins by fluorescence assay

Histone deacetylase 3 [7] = molecular target: T3, Histone deacetylase 3; remark: listed apart in the source
Description: Inhibition full length human recombinant HDAC3 expressed in baculovirus using carboxyfluorescein (FAM)-labeled acetylated/ trifluoroacetylated peptide as substrate after 60 mins by fluorescence assay

Histone deacetylase 1 [8] = molecular target: T1, Histone deacetylase 1; test: biochemical
Description: Inhibition of C-terminal His-tagged and C-terminal FLAG-tagged full length human recombinant HDAC1 expressed in baculovirus coexpressed in fall armyworm Sf9 cells using carboxyfluorescein (FAM)-labeled acetylated/ trifluoroacetylated peptide as substrate after 60 mins by fluorescence assay

[9] = molecular target: T4, Protein deacetylase HDAC6 (Homo sapiens, UniProt Q9UBN7); test: Inhibition of human recombinant HDAC6 expressed in baculovirus coexpressed in fall armyworm Sf9 cells using carboxyfluorescein (FAM)-labeled acetylated/ trifluoroacetylated peptide as substrate after 60 mins by fluorescence assay
T4 sequence (Q9UBN7 whole entry): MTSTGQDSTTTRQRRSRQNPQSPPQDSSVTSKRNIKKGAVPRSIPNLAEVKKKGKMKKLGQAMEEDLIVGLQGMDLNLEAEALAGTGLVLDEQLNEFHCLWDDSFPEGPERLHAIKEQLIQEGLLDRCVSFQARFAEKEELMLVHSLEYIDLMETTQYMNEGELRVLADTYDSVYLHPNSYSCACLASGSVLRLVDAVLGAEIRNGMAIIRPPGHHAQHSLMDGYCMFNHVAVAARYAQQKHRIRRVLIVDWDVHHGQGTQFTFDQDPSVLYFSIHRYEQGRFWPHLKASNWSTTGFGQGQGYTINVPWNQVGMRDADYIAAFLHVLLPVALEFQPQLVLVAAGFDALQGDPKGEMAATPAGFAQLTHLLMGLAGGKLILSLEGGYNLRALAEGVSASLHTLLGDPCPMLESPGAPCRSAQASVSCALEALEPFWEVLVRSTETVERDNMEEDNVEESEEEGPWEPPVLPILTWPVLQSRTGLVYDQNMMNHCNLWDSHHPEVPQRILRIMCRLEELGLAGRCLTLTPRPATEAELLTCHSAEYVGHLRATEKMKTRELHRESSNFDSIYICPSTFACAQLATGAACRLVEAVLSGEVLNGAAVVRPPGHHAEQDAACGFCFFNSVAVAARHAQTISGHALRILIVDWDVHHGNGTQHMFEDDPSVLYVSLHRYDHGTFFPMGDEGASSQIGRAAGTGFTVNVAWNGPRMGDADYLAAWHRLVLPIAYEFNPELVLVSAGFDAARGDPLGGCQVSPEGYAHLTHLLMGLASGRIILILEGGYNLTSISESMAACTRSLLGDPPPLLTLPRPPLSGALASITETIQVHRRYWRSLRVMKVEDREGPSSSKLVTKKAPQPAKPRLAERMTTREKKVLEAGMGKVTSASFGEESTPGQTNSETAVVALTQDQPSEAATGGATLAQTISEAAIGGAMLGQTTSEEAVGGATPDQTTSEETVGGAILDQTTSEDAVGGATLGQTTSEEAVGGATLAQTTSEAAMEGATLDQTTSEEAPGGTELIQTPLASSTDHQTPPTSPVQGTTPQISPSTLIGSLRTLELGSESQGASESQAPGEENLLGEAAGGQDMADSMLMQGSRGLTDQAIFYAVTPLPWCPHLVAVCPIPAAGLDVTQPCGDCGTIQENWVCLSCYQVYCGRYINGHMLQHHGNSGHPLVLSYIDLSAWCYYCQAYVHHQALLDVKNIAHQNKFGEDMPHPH

Histone deacetylase 7 = molecular target: T5, Histone deacetylase 7 (Homo sapiens, UniProt Q8WUI4); test: (§1) Inhibition of N-terminal GST-tagged human recombinant HDAC7 (518 to end residues) expressed in baculovirus coexpressed in fall armyworm Sf9 cells using carboxyfluorescein (FAM)-labeled acetylated/ trifluoroacetylated peptide as substrate after 60 mins by fluorescence assay
T5 sequence (Q8WUI4 whole entry): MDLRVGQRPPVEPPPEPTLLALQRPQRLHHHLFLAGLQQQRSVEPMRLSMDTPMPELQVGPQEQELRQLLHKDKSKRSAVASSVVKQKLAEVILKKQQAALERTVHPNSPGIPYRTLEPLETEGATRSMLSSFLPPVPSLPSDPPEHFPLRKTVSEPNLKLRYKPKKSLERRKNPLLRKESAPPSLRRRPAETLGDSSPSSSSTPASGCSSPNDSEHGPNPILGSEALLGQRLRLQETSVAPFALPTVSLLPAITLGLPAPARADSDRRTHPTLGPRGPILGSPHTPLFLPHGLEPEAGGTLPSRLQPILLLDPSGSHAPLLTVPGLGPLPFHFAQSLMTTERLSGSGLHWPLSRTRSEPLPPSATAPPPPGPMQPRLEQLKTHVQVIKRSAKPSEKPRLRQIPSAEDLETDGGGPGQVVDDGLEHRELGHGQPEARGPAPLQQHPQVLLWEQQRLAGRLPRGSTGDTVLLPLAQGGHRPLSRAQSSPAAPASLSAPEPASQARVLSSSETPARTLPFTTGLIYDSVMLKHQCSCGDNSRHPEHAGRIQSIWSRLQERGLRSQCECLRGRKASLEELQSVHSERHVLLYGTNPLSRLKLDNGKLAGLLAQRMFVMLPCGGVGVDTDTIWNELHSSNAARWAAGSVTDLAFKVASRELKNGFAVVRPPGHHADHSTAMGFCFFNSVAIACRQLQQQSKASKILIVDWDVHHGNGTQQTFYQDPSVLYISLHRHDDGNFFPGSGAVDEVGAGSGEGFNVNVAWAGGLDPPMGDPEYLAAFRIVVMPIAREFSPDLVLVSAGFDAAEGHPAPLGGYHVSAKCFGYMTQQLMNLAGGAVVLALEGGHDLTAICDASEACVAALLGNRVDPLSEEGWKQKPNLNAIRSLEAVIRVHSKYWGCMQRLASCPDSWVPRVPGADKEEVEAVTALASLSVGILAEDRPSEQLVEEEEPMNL

Histone deacetylase 8 = molecular target: T6, Histone deacetylase 8 (Homo sapiens, UniProt Q9BY41); test: Inhibition of C-terminal His-tagged full length human recombinant HDAC8 expressed in baculovirus coexpressed in fall armyworm Sf9 cells using carboxyfluorescein (FAM)-labeled acetylated/ trifluoroacetylated peptide as substrate after 60 mins by fluorescence assay
T6 sequence (Q9BY41 whole entry): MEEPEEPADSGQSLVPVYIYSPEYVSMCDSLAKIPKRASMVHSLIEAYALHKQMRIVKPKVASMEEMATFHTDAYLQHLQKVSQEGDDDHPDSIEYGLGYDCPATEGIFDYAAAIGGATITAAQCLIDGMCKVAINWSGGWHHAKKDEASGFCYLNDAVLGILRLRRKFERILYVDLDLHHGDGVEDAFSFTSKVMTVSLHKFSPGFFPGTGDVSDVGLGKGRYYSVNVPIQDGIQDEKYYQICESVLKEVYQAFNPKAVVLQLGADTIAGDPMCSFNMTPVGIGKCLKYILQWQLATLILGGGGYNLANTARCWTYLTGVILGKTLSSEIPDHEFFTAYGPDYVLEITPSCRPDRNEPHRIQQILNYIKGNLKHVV

Histone deacetylase 9 = Histone deacetylase 9 (Homo sapiens, UniProt Q9UKV0); test: Inhibition of C-terminal His-tagged human recombinant HDAC9 (604 to 1066 residues) expressed in baculovirus coexpressed in fall armyworm Sf9 cells using carboxyfluorescein (FAM)-labeled acetylated/ trifluoroacetylated peptide as substrate after 60 mins by fluorescence assay
Mus musculus [10] = test: Binding affinity to mouse brain HDAC1 at 10 mg/kg, ip; type: functional
[11] = Half life in Sprague-Dawley rat plasma at 1 mg/kg, po; type: ADME, organism-based
[12] = Cmax in Sprague-Dawley rat plasma at 1 mg/kg, po; type: ADME, organism-based; parameters: dose 1 mg/kg, route oral
[13] = AUC in Sprague-Dawley rat brain at 1 mg/kg, po; type: ADME, organism-based
[14] = Half life in Sprague-Dawley rat brain at 1 mg/kg, po; type: ADME, organism-based
[15] = Cmax in Sprague-Dawley rat brain at 1 mg/kg, po; type: ADME, organism-based; parameters: dose 1 mg/kg, route oral
[16] = Ratio of Cmax in brain to plasma in Sprague-Dawley rat at 1 mg/kg, po; type: ADME, organism-based
[17] = Ratio of AUC in brain to plasma in Sprague-Dawley rat at 1 mg/kg, po; type: ADME, organism-based; settings: read-out: Ratio AUC
[18] = Oral bioavailability in Sprague-Dawley rat at 1 mg/kg; type: ADME, organism-based; settings: in vivo
[19] = AUC in Sprague-Dawley rat plasma at 1 mg/kg, po; type: ADME, organism-based
Mus musculus [20] = test: Binding affinity to mouse brain HDAC2 at 10 mg/kg, ip; type: functional
Histone deacetylase 4 = Histone deacetylase 4 (Homo sapiens, UniProt P56524); test: as §1, with “GST-tagged and C-terminal His-tagged” for “GST-tagged”, “HDAC4 (627” for “HDAC7 (518”, “1084 residues )” for “end residues)”
Histone deacetylase 5 = Histone deacetylase 5 (Homo sapiens, UniProt Q9UQL6); test: Inhibition of N-terminal GST-tagged full length human recombinant HDAC5 expressed in baculovirus coexpressed in fall armyworm Sf9 cells using carboxyfluorescein (FAM)-labeled acetylated/ trifluoroacetylated peptide as substrate after 60 mins by fluorescence assay
Chain of Histone deacetylase 5 (Q9UQL6 whole entry): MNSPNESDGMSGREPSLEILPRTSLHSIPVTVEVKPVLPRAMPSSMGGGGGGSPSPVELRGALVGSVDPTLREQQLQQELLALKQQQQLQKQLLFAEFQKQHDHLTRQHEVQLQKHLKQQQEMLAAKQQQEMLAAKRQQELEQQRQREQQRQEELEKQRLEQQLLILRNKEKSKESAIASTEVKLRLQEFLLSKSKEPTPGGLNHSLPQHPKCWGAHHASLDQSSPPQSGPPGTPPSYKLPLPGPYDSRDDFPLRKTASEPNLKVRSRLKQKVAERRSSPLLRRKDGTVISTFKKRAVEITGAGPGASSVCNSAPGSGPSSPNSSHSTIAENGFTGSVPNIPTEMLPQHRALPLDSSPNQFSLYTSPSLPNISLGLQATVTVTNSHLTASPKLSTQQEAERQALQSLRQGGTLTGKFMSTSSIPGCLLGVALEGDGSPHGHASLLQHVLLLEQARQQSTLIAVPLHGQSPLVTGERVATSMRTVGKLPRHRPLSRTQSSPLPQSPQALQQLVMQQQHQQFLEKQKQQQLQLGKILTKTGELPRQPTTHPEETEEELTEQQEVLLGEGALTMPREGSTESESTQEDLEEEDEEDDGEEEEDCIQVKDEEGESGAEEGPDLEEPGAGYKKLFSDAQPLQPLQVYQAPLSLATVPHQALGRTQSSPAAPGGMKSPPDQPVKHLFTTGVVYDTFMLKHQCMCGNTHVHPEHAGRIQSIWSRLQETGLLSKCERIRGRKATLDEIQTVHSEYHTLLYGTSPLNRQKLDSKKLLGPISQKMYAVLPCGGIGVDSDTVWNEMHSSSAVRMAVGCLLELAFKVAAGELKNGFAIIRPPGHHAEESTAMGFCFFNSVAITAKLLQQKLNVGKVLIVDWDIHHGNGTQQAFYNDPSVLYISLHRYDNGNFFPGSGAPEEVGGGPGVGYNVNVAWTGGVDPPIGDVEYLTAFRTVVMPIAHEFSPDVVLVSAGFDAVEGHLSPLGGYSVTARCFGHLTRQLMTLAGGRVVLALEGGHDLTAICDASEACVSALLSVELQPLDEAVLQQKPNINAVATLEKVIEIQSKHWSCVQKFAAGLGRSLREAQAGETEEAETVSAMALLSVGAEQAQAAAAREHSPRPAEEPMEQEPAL

T3 sequence (O15379 whole entry): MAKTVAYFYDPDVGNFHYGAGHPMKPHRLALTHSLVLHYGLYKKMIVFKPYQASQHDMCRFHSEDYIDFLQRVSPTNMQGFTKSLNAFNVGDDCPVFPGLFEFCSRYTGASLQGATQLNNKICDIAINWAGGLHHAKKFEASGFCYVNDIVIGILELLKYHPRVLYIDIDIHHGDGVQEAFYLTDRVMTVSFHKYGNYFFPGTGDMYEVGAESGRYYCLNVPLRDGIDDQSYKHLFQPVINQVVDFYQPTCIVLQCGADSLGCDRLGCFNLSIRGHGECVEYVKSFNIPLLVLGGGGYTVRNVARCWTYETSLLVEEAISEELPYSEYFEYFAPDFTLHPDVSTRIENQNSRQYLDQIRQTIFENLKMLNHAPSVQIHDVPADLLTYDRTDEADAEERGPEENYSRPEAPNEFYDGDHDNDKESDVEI
T1 sequence (Q13547 whole entry): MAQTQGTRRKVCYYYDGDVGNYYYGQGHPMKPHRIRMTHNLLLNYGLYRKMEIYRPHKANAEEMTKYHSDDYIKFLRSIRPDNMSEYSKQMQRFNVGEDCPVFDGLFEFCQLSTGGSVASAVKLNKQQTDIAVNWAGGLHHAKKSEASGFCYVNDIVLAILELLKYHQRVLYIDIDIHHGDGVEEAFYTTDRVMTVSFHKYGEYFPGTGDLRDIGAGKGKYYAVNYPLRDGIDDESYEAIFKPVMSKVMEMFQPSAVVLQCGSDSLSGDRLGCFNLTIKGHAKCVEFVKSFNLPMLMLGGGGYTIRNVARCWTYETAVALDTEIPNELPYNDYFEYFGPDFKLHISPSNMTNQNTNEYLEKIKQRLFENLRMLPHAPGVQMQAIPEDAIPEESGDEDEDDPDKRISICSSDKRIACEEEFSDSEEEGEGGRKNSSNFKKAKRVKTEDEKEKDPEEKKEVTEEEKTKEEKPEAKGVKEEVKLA
T2 sequence (Q92769 whole entry): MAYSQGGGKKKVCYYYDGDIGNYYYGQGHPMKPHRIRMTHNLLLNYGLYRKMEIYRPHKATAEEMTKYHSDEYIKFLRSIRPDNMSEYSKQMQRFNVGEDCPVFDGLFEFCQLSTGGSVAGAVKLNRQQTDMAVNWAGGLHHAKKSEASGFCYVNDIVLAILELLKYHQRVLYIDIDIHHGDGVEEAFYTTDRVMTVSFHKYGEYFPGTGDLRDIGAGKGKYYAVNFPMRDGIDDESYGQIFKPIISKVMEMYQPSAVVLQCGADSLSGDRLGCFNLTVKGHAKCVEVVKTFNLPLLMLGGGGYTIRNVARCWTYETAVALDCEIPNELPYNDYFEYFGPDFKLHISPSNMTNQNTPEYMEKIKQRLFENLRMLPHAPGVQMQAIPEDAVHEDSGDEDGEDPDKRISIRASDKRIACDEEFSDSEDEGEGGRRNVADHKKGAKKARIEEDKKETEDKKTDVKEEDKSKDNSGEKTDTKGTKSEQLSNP
Chain of Histone deacetylase 9 (Q9UKV0 whole entry, the tested form may be a part): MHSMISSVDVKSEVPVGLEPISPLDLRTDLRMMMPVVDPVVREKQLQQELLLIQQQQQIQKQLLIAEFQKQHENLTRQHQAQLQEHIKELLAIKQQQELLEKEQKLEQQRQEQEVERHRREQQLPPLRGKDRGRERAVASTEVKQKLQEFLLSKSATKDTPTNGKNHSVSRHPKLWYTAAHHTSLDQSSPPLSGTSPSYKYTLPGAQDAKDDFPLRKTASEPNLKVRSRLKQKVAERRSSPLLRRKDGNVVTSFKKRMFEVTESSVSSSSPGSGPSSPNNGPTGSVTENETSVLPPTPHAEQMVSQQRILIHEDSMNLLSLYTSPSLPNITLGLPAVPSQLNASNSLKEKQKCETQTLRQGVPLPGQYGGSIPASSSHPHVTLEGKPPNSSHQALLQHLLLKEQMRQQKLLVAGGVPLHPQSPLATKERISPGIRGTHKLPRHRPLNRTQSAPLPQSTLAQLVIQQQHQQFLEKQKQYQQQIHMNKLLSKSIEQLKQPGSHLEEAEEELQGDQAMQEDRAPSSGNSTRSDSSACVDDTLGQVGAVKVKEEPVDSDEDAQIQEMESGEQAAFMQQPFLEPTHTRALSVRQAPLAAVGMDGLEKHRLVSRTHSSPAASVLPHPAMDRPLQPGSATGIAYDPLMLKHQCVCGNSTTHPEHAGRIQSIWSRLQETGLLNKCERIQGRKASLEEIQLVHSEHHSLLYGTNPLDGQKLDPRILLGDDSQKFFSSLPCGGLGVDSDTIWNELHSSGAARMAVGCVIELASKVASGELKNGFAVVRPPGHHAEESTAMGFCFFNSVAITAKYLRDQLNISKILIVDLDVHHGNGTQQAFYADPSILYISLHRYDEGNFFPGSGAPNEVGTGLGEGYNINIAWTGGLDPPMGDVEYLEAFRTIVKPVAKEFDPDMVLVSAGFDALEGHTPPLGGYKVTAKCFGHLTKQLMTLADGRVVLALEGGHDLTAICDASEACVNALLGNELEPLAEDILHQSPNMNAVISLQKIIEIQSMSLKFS
Chain of Histone deacetylase 4 (P56524 whole entry): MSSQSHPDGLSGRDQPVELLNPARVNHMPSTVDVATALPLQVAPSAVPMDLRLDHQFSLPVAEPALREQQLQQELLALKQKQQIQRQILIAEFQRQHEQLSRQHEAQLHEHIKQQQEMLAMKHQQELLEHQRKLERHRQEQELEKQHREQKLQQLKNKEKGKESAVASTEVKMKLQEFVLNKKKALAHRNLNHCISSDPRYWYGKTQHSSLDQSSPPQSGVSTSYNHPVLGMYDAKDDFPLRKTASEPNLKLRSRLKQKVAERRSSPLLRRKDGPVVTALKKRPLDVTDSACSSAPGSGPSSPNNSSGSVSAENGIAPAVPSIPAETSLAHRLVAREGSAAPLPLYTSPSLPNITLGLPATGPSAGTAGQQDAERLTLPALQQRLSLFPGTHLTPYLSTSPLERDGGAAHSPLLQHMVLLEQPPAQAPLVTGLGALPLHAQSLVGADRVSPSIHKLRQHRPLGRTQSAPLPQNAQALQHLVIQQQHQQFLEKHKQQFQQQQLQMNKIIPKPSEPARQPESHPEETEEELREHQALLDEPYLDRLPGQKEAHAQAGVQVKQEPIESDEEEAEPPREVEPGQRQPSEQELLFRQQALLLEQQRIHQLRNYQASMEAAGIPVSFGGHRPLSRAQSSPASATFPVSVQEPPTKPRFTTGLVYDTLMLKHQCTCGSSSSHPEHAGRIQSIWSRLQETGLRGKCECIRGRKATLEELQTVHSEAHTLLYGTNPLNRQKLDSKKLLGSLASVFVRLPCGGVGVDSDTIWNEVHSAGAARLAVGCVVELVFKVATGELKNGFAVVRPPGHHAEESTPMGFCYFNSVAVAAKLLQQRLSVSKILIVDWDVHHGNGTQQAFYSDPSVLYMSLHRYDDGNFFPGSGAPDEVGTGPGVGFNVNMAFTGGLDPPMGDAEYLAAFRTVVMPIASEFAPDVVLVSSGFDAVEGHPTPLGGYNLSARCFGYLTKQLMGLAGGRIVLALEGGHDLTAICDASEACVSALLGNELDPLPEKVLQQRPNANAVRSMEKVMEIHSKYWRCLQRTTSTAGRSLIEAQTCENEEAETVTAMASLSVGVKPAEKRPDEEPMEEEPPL

Work on Nc1ccc(-c2ccc(F)cc2)cc1NC(=O)C1C2COCC21 (centres undefined) yielded a remaining at 5 h, 5 µM [1] of 94.1%, a remaining at 1 h, 1 µM [2] of 60% and a T1/2 (Histone deacetylase 1 [3]) of 13 min. The T1/2 (Histone deacetylase 2 [4]) was 58 min and the T1/2 (Histone deacetylase 3 [5]) was 217 min.

In the case of Nc1ccc(-c2ccc(F)cc2)cc1NC(=O)C1CCc2ccccc2O1 (centres undefined), the remaining at 5 h, 5 µM [1] was 3.7%, the pIC50 (Histone deacetylase 2 [6]) was 5.18 and the pIC50 (Histone deacetylase 3 [7]) was 5.20. For the same compound, the pIC50 (Histone deacetylase 1 [8]) was 5.25.

Nc1ccc(-c2cccnc2)cc1NC(=O)C1CCOCC1 showed a T1/2 (Histone deacetylase 1 [3]) of 6.45 min and a T1/2 (Histone deacetylase 3 [5]) of 20.8 min.

In the case of Nc1ccc(-c2ccc(F)cc2)cc1NC(=O)[C@@H]1C[C@H]2CC[C@@H](C1)O2, the pIC50 [9] was less than 4.48, the pIC50 (Histone deacetylase 7) was less than 4.48 and the pIC50 (Histone deacetylase 8) was less than 4.48. It also gave a pIC50 (Histone deacetylase 9) of less than 4.48, a remaining at 5 h, 5 µM [1] of 114% and a remaining at 1 h, 1 µM [2] of 62%. For the same compound, the Activity (Mus musculus [10]) was 42%, the half-life [11] was 282 min and the Cmax [12] was 3970 nM. It also gave an AUC [13] of 1.8 µM·h, a half-life [14] of 146 min and a Cmax [15] of 890 nM. It also gave a Kp [16] of 0.22, a Kp [17] of 0.17 and a bioavailability [18] of 33.4%. For the same compound, the AUC [19] was 10.8 µM·h, the Activity (Mus musculus [20]) was 10% and the pIC50 (Histone deacetylase 4) was less than 4.48. For the same compound, the pIC50 (Histone deacetylase 5) was less than 4.48, the T1/2 (Histone deacetylase 1 [3]) was 3 min and the T1/2 (Histone deacetylase 2 [4]) was 37 min. The T1/2 (Histone deacetylase 3 [5]) was 132 min.

Nc1ccc(-c2ccccc2)cc1NC(=O)C1CCOCC1 showed a T1/2 (Histone deacetylase 1 [3]) of 0.119 min and a T1/2 (Histone deacetylase 3 [5]) of 3.85 min.

In the case of Nc1ccc(-c2ccc(F)cc2)cc1NC(=O)[C@H]1CCCCO1, the remaining at 5 h, 5 µM [1] was 0%, the pIC50 (Histone deacetylase 2 [6]) was 5.89 and the pIC50 (Histone deacetylase 3 [7]) was 5.24. For the same compound, the pIC50 (Histone deacetylase 1 [8]) was 6.33.

For Nc1ccc(-c2ccc(F)cc2)cc1NC(=O)C1COc2ccccc2C1 (centres undefined), the remaining at 5 h, 5 µM [1] was 100% and the remaining at 1 h, 1 µM [2] was 25%.

In the case of Nc1ccc(-c2ccc(F)cc2)cc1NC(=O)C1CCOCC1, the remaining at 5 h, 5 µM [1] was 93%, the remaining at 1 h, 1 µM [2] was 54% and the Activity (Mus musculus [10]) was 68%. It also gave an Activity (Mus musculus [20]) of 10%.

Work on Nc1ccc(-c2ccncc2)cc1NC(=O)C1CCOCC1 yielded a T1/2 (Histone deacetylase 1 [3]) of 2.35 min and a T1/2 (Histone deacetylase 3 [5]) greater than 33.3 min.

Nc1ccc(-c2ccc(C(F)(F)F)cc2)cc1NC(=O)C1CCOCC1 showed a T1/2 (Histone deacetylase 1 [3]) of 26.7 min, a T1/2 (Histone deacetylase 2 [4]) greater than 33.3 min and a T1/2 (Histone deacetylase 3 [5]) greater than 33.3 min.

In the case of Nc1ccc(-c2ccc(F)cc2)cc1NC(=O)C1CCCOC1 (centres undefined), the pIC50 (Histone deacetylase 2 [6]) was 5.33, the pIC50 (Histone deacetylase 3 [7]) was 4.70 and the pIC50 (Histone deacetylase 1 [8]) was 5.91.

For Nc1ccc(-c2cccc(F)c2)cc1NC(=O)C1CCOCC1, the T1/2 (Histone deacetylase 1 [3]) was 9.67 min, the T1/2 (Histone deacetylase 2 [4]) was 12.3 min and the T1/2 (Histone deacetylase 3 [5]) was greater than 33.3 min.

In the case of Nc1ccc(-c2ccc(F)cc2)cc1NC(=O)[C@@H]1CCCCO1, the remaining at 5 h, 5 µM [1] was 0%, the pIC50 (Histone deacetylase 2 [6]) was 5.84 and the pIC50 (Histone deacetylase 3 [7]) was 5.23. For the same compound, the pIC50 (Histone deacetylase 1 [8]) was 5.84.

Compound Nc1ccc(-c2ccc(F)cc2)cc1NC(=O)C1Cc2ccccc2CO1 (centres undefined) has a remaining at 5 h, 5 µM [1] of 11.1%, a pIC50 (Histone deacetylase 2 [6]) of 6.92 and a pIC50 (Histone deacetylase 3 [7]) of 4.59. For the same compound, the pIC50 (Histone deacetylase 1 [8]) was 7.35.
